According to patent publication US7851474B2, “Dipiperazinyl ketones and related analogues” (Neurogen Corporation, priority 2005, dated 2010):

target: T1, chimeric human H3 receptor (Homo sapiens, UniProt Q9Y5N1, E19D); assay: Chimeric human H3 receptor screening GTP binding assay (inhibition of histamine-stimulated GTP-gamma35S binding, Example 8); assay type: biochemical; details: 1 h; Table II "Ki", symbol "+": assay described in Example 8; read-out: percent inhibition of agonist-induced GTP-gammaS binding to H3
T1 construct: made in house; host or cells: Sf9 insect cells (baculovirus infection); P2 membrane preparation
T1 sequence (Q9Y5N1 with tags, fused parts or gaps E19D): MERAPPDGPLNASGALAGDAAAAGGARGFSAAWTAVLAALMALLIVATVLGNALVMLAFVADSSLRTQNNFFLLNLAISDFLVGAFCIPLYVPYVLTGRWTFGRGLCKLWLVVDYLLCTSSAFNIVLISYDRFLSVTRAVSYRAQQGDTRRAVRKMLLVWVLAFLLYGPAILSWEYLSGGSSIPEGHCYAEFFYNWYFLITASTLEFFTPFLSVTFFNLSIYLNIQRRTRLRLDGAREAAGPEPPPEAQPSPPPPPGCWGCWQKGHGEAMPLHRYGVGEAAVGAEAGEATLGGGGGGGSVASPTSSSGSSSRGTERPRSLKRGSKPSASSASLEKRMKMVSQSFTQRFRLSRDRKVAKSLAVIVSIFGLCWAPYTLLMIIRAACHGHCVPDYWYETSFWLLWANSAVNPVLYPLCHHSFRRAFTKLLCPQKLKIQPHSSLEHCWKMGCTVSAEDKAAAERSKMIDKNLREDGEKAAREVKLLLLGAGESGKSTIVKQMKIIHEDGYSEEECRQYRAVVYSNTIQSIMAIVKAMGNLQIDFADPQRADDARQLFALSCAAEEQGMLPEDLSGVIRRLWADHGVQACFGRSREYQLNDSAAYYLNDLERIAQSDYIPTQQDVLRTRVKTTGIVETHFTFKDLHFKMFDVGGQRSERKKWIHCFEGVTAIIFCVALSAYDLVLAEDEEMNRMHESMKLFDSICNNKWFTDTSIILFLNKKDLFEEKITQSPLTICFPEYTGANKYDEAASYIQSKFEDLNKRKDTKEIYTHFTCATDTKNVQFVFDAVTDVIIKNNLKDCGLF
Method in brief: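 Data are percent inhibition of the 1 μM histamine-stimulated GTP-gamma35S (125 pM) binding, after non-specific binding (10 uM GTP-gammaS) is subtracted. Test compound at 4 μM. Incubation was 60 min at room temperature with Sf9 membranes bearing receptor plus G-protein subunits, buffer pH 7.4 with 10 μM GDP, and filtration read-out.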

| Compound | inhibition at 4 µM [%] |
| --- | --- |
| Cc1ccc(C(=O)N2CCN(CC(=O)N3CCN(C4CCC4)CC3)CC2)cc1 [Compound 783, 1-cyclobutyl-4-{[4-(4-methylbenzoyl)piperazin-1-yl]acetyl}piperazine] | > 90 |
| CCCc1ccc(C(=O)N2CCN(CC(=O)N3CCN(C4CCC4)CC3)CC2)cc1 [Compound 790, 1-cyclobutyl-4-{[4-(4-propylbenzoyl)piperazin-1-yl]acetyl}piperazine] | > 90 |
| Cc1cc(C)c(C(=O)N2CCN(CC(=O)N3CCN(C4CCC4)CC3)CC2)c(C)c1 [Compound 796, 1-cyclobutyl-4-{[4-(mesitylcarbonyl)piperazin-1-yl]acetyl}piperazine] | > 90 |
| O=C(COc1ccccc1)N1CCN(CC(=O)N2CCN(C3CCC3)CC2)CC1 [Compound 797, 1-cyclobutyl-4-{[4-(phenoxyacetyl)piperazin-1-yl]acetyl}piperazine] | > 90 |
| O=C(Cc1ccccc1)N1CCN(CC(=O)N2CCN(C3CCC3)CC2)CC1 [Compound 798, 1-cyclobutyl-4-{[4-(phenylacetyl)piperazin-1-yl]acetyl}piperazine] | > 90 |
| O=C(CN1CCN(C(=O)c2cccnc2)CC1)N1CCN(C2CCC2)CC1 [Compound 800, 1-cyclobutyl-4-{[4-(pyridin-3-ylcarbonyl)piperazin-1-yl]acetyl}piperazine] | > 90 |
| CCC(C)N1CCN(C(=O)CN2CCN(C(=O)C3CCCO3)CC2)CC1 (stereo not drawn) [Compound 886, 1-sec-butyl-4-{[4-(tetrahydrofuran-2-ylcarbonyl)piperazin-1-yl]acetyl}piperazine] | > 90 |
| Cn1c(C(=O)N2CCN(CC(=O)N3CCN(C4CCC4)CC3)CC2)cc2ccccc21 [Compound 887, 2-({4-[2-(4-cyclobutylpiperazin-1-yl)-2-oxoethyl]piperazin-1-yl}carbonyl)-1-methyl-1H-indole] | > 90 |
| CCn1c(C(=O)N2CCN(CC(=O)N3CCN(C4CCC4)CC3)CC2)cc2ccccc21 [Compound 888, 2-({4-[2-(4-cyclobutylpiperazin-1-yl)-2-oxoethyl]piperazin-1-yl}carbonyl)-1-ethyl-1H-indole] | > 90 |
| Cc1ccc(N)c(C(=O)N2CCN(CC(=O)N3CCN(C4CCC4)CC3)CC2)c1 [Compound 893, 2-({4-[2-(4-cyclobutylpiperazin-1-yl)-2-oxoethyl]piperazin-1-yl}carbonyl)-4-methylaniline] | > 90 |

Continued, values first:

| inhibition at 4 µM [%] | Compound |
| --- | --- |
| > 90 | CC(C)Oc1ccc(C(=O)N2CCN(CC(=O)N3CCN(C4CCC4)CC3)CC2)cc1 [Compound 776, 1-cyclobutyl-4-{[4-(4-isopropoxybenzoyl)piperazin-1-yl]acetyl}piperazine] |
| > 90 | CC(C)c1ccc(C(=O)N2CCN(CC(=O)N3CCN(C4CCC4)CC3)CC2)cc1 [Compound 777, 1-cyclobutyl-4-{[4-(4-isopropylbenzoyl)piperazin-1-yl]acetyl}piperazine] |
| > 90 | CCCOc1ccc(C(=O)N2CCN(CC(=O)N3CCN(C4CCC4)CC3)CC2)cc1 [Compound 788, 1-cyclobutyl-4-{[4-(4-propoxybenzoyl)piperazin-1-yl]acetyl}piperazine] |
| > 90 | O=C(CN1CCN(C(=O)C(c2ccccc2)c2ccccc2)CC1)N1CCN(C2CCC2)CC1 [Compound 794, 1-cyclobutyl-4-{[4-(diphenylacetyl)piperazin-1-yl]acetyl}piperazine] |
| > 90 | O=C(CN1CCN(C(=O)c2ccno2)CC1)N1CCN(C2CCC2)CC1 [Compound 795, 1-cyclobutyl-4-{[4-(isoxazol-5-ylcarbonyl)piperazin-1-yl]acetyl}piperazine] |
| > 90 | O=C(CN1CCN(C(=O)c2ccccn2)CC1)N1CCN(C2CCC2)CC1 [Compound 799, 1-cyclobutyl-4-{[4-(pyridin-2-ylcarbonyl)piperazin-1-yl]acetyl}piperazine] |
| > 90 | CCCn1c(C(=O)N2CCN(CC(=O)N3CCN(C4CCC4)CC3)CC2)cc2ccccc21 [Compound 889, 2-({4-[2-(4-cyclobutylpiperazin-1-yl)-2-oxoethyl]piperazin-1-yl}carbonyl)-1-propyl-1H-indole] |
| > 90 | Nc1ccccc1C(=O)N1CCN(CC(=O)N2CCN(C3CCC3)CC2)CC1 [Compound 890, 2-({4-[2-(4-cyclobutylpiperazin-1-yl)-2-oxoethyl]piperazin-1-yl}carbonyl)aniline] |
| > 90 | CNc1ccccc1C(=O)N1CCN(CC(=O)N2CCN(C3CCC3)CC2)CC1 [Compound 891, 2-({4-[2-(4-cyclobutylpiperazin-1-yl)-2-oxoethyl]piperazin-1-yl}carbonyl)-N-methylaniline] |
| > 90 | Cc1cccc(C(=O)N2CCN(CC(=O)N3CCN(C4CCC4)CC3)CC2)c1N [Compound 892, 2-({4-[2-(4-cyclobutylpiperazin-1-yl)-2-oxoethyl]piperazin-1-yl}carbonyl)-6-methylaniline] |
| > 90 | Cc1cnc(C(=O)N2CCN(CC(=O)N3CCN(C4CCC4)CC3)CC2)cn1 [Compound 894, 2-({4-[2-(4-cyclobutylpiperazin-1-yl)-2-oxoethyl]piperazin-1-yl}carbonyl)-5-methylpyrazine] |

same assay, conditions: 1 h; Table II, "+" in the column headed Ki; assay of Example 8; read-out: percent inhibition of agonist-induced GTP-gammaS binding to H3

| Compound | inhibition at 4 µM [%] |
| --- | --- |
| O=C(CN1CCN(C(=O)c2cccc(F)c2)CC1)N1CCN(C2CCC2)CC1 [Compound 752, 1-cyclobutyl-4-{[4-(3-fluorobenzoyl)piperazin-1-yl]acetyl}piperazine] | > 90 |
| O=C(CN1CCN(C(=O)c2cccc(Oc3ccccc3)c2)CC1)N1CCN(C2CCC2)CC1 [Compound 764, 1-cyclobutyl-4-{[4-(3-phenoxybenzoyl)piperazin-1-yl]acetyl}piperazine] | > 90 |
| Cc1cc(C(=O)N2CCN(CC(=O)N3CCN(C4CCC4)CC3)CC2)oc1C [Compound 766, 1-cyclobutyl-4-{[4-(4,5-dimethyl-2-furoyl)piperazin-1-yl]acetyl}piperazine] | > 90 |
| O=C(CN1CCN(C(=O)c2ccc(F)cc2)CC1)N1CCN(C2CCC2)CC1 [Compound 772, 1-cyclobutyl-4-{[4-(4-fluorobenzoyl)piperazin-1-yl]acetyl}piperazine] | > 90 |

Results, then the compound that gave them:

| inhibition at 4 µM [%] | Compound |
| --- | --- |
| > 90 | COc1ccc(C(=O)N2CCN(CC(=O)N3CCN(C4CCC4)CC3)CC2)cc1F [Compound 748, 1-cyclobutyl-4-{[4-(3-fluoro-4-methoxybenzoyl)piperazin-1-yl]acetyl}piperazine] |
| > 90 | COc1cccc(C(=O)N2CCN(CC(=O)N3CCN(C4CCC4)CC3)CC2)c1 [Compound 757, 1-cyclobutyl-4-{[4-(3-methoxybenzoyl)piperazin-1-yl]acetyl}piperazine] |
| > 90 | CC(C)C(C(=O)N1CCN(CC(=O)N2CCN(C3CCC3)CC2)CC1)c1ccccc1 (stereo not drawn) [Compound 760, 1-cyclobutyl-4-{[4-(3-methyl-2-phenylbutanoyl)piperazin-1-yl]acetyl}piperazine] |
| > 90 | Cc1cccc(C(=O)N2CCN(CC(=O)N3CCN(C4CCC4)CC3)CC2)c1 [Compound 761, 1-cyclobutyl-4-{[4-(3-methylbenzoyl)piperazin-1-yl]acetyl}piperazine] |
| > 90 | O=C(CN1CCN(C(=O)c2ccsc2)CC1)N1CCN(C2CCC2)CC1 [Compound 765, 1-cyclobutyl-4-{[4-(3-thienylcarbonyl)piperazin-1-yl]acetyl}piperazine] |
